Structures are written as SMILES. Values after ≈ are worked out from the molar mass of the structure shown.

One test deals with VRE 39. Kind of test: Resistance development, serial exposure to subinhibitory doses, 20 cycles. In kind it is cell-based, Enterococcus faecalis. The settings on record: subinhibitory doses (MIC/2). How it is done: To monitor resistance development upon exposure to subinhibitory doses, the initial MIC of Vanc-39, Vanc-42 and daptomycin was determined against VRE 39. A new MIC assay was prepared using 1,000-fold diluted cells grown at MIC/2 (occasionally MIC/4 if growth in MIC/2 was too limited). This was repeated for 20 cycles and changes in MIC were monitored.

For the next test, the system named is MRSA. The experiment in a line: Time-kill curves, MRSA at 4x MIC. The note with it: 1-24 h. The test is classed as cell-based, Staphylococcus aureus. How it is done:
Time-kill curves were determined based on the CLSI guidelines ([Clinical and Laboratory Standards Institute [CLSI], 1999]). Single colonies grown overnight at 37°C were resuspended in Ca^2+-adjusted (0.05 mg/mL) Mueller Hinton broth up to an optical density (625 nm) of 0.08–00.10 (corresponding to the 0.5 McFarland standard), followed by a 10-fold dilution in the same broth. Subsequently, 0.2 mL inoculum was added to 1.7 mL Ca^2+-adjusted (0.05 mg/mL) Mueller Hinton broth, followed by addition of the antibacterial compound (0.1 mL). The final concentration of the antibacterial compound corresponded to the 4x MIC value for that compound. For the antibiotic-free control, the compound was replaced by an equal volume of ultrapure water. The final inoculum concentration was approximately 10^6 CFU/mL. The cultures were continuously shaken at 37°C. After 1, 2, 4, 6, 8, and 24 h, a 0.1 mL aliquot was removed, serially diluted in cold 0.9% w/v NaCl and plated on BHI (VRE) and LB (MRSA) agar plates. Plates were incubated overnight at 37°C and colonies were counted.

For a further test, the system named is VRE39. The experiment in a line: MIC in the absence and presence of 10 µM vancomycin (vanA induction). The test is classed as cell-based, Enterococcus faecalis. How it is done: The minimum inhibitory concentration (MIC) was determined using the broth microdilution method according to the antimicrobial susceptibility testing standards of the clinical and laboratory standards institute ([Clinical and Laboratory Standards Institute [CLSI], 2012]). Ultrapure water and non-inoculated broth were used as controls. In one case, a final concentration of 10 μM vancomycin was included with the vancomycin analog or control antibiotic.

For another test, the system named is E. coli XL-1 blue MRF'. Kind of test: MIC, broth microdilution, E. coli XL-1 blue MRF'. The test is classed as cell-based, Escherichia coli. A digest of the protocol:
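Controls (ultrapure water; broth not inoculated) were included throughout CLSI-compliant broth microdilution. One condition supplemented analogue or comparator with 10 μM vancomycin, final level.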

The subject of test [1] is lipid II with terminal D-Ala-D-Lac. Details: method as in Arthur and Courvalin, 1993; Walsh et al., 1996. The settings on record: D-Ala-D-Lac versus D-Ala-D-Ala termini ref Arthur and Courvalin, 1993; Walsh et al., 1996; cited from earlier work.
In the next test the test system is B. subtilis PSB3. The experiment in a line: MIC, broth microdilution, B. subtilis PSB3. In kind it is cell-based, Bacillus subtilis. The gist of the method: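 Read-out: lowest concentration inhibiting growth in broth microdilution, CLSI method. Water and broth-only wells acted as controls; in one case 10 μM vancomycin (final) was present with the compound.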

In the case of `CCCCCCCCCC(=O)N[C@@H](Cc1c[nH]c2ccccc12)C(=O)N[C@H](CC(N)=O)C(=O)N[C@@H](CC(=O)O)C(=O)N[C@@H]1C(=O)NCC(=O)N[C@@H](CCCN)C(=O)N[C@@H](CC(=O)O)C(=O)N[C@H](C)C(=O)N[C@@H](CC(=O)O)C(=O)NCC(=O)N[C@H](CO)C(=O)N[C@@H]([C@H](C)CC(=O)O)C(=O)N[C@@H](CC(=O)c2ccccc2N)C(=O)O[C@@H]1C` [Daptomycin, reference compound], the “change in MIC upon serial exposure” value in the test on VRE 39 is recorded as “eightfold higher concentration”. The time-kill curve character result with MRSA was “complete elimination after 24 h”.

As to `CN(C)c1cc(NC(=O)CNC(C)(C)C)c(O)c2c1C[C@H]1C[C@H]3[C@H](N(C)C)C(O)=C(C(N)=O)C(=O)[C@@]3(O)C(O)=C1C2=O` [Tigecycline, reference compound], the time-kill curve character result in the test on MRSA is “typical bacteriostatic time-kill curve”.

As to `CNC(CC(C)C)C(=O)NC1C(=O)NC(CC(N)=O)C(=O)NC2C(=O)NC3C(=O)NC(C(=O)NC(C(=O)NCCCNC(=O)c4cc5ccccc5[nH]4)c4cc(O)cc(O)c4-c4cc3ccc4O)C(O)c3ccc(c(Cl)c3)Oc3cc2cc(c3OC2OC(CO)C(O)C(O)C2OC2CC(C)(N)C(O)C(C)O2)Oc2ccc(cc2Cl)C1O` (stereo not drawn) [Vanc-24], the MIC in the test on VRE39 (VRE39, 0 µM vancomycin) amounted to 3.13 µM; with VRE39 (VRE39, 10 μM vancomycin added), 6.25 µM. Moreover, the time-kill curve character result in the test with MRSA was “quickest onset of killing”.

`CCCCc1ccc(NC(=O)CNC(=O)[C@H]2NC(=O)[C@H]3NC(=O)[C@H](NC(=O)[C@@H]4NC(=O)[C@H](CC(N)=O)NC(=O)[C@H](NC(=O)[C@@H](CC(C)C)NC)[C@H](O)c5ccc(c(Cl)c5)Oc5cc4cc(c5O[C@@H]4O[C@H](CO)[C@@H](O)[C@H](O)[C@H]4O[C@H]4C[C@](C)(N)[C@H](O)[C@H](C)O4)Oc4ccc(cc4Cl)[C@H]3O)c3ccc(O)c(c3)-c3c(O)cc(O)cc32)cc1` [Vanc-39]: the “change in MIC upon serial exposure” value with VRE 39 is “oscillated between the original value and a twofold increase”. Moreover, the MIC stood at 1.56 µM in the test on VRE39 (VRE39, 0 µM vancomycin) and 6.25 µM in the test with VRE39 (VRE39, 10 μM vancomycin added).

Turning to `CN[C@H](CC(C)C)C(=O)N[C@H]1C(=O)N[C@@H](CC(N)=O)C(=O)N[C@H]2C(=O)N[C@H]3C(=O)N[C@H](C(=O)N[C@H](C(=O)NCC(=O)Nc4ccc5c(c4)Cc4ccccc4-5)c4cc(O)cc(O)c4-c4cc3ccc4O)[C@H](O)c3ccc(c(Cl)c3)Oc3cc2cc(c3O[C@@H]2O[C@H](CO)[C@@H](O)[C@H](O)[C@H]2O[C@H]2C[C@](C)(N)[C@H](O)[C@H](C)O2)Oc2ccc(cc2Cl)[C@H]1O` [Vanc-42], in the test with VRE 39, the “change in MIC upon serial exposure” value was “oscillated between the original value and a twofold increase”. Moreover, the MIC with VRE39 (VRE39, 0 µM vancomycin) is listed as 1.56 µM; in the test with VRE39 (VRE39, 10 μM vancomycin added), 1.56 µM.

For `CNC(CC(C)C)C(=O)NC1C(=O)NC(CC(N)=O)C(=O)NC2C(=O)NC3C(=O)NC(C(=O)NC(C(=O)NCCCNC(=O)c4ccc5cc(NS(=O)(=O)c6ccc(C(C)C)cc6)ccc5c4)c4cc(O)cc(O)c4-c4cc3ccc4O)C(O)c3ccc(c(Cl)c3)Oc3cc2cc(c3OC2OC(CO)C(O)C(O)C2OC2CC(C)(N)C(O)C(C)O2)Oc2ccc(cc2Cl)C1O` (stereo not drawn) [Vanc-66], the MIC came to 3.13 µM in the test on VRE39 (VRE39, 0 µM vancomycin) and 3.13 µM in the test on VRE39 (VRE39, 10 μM vancomycin added).

In the case of `CN[C@H](CC(C)C)C(=O)N[C@H]1C(=O)N[C@@H](CC(N)=O)C(=O)N[C@H]2C(=O)N[C@H]3C(=O)N[C@H](C(=O)N[C@H](C(=O)O)c4cc(O)cc(O)c4-c4cc3ccc4O)[C@H](O)c3ccc(c(Cl)c3)Oc3cc2cc(c3O[C@@H]2O[C@H](CO)[C@@H](O)[C@H](O)[C@H]2O[C@H]2C[C@](C)(N)[C@H](O)[C@H](C)O2)Oc2ccc(cc2Cl)[C@H]1O` [Vancomycin], the MICvanc/MICi in the test on E. coli XL-1 blue MRF' (E. coli XL-1 blue MRF', ratio of MIC of vancomycin and MIC of analogue) worked out at 1; with B. subtilis PSB3 (ratio of MIC of vancomycin and MIC of analogue) it was 1. In addition, the MIC in the test with E. coli XL-1 blue MRF' (Escherichia coli) stood at 100 µM (≈ 145 µg/mL); with VRE39 (Enterococcus faecalis, VRE39, 0 µM vancomycin), 800 µM; in the test with VRE39 (Enterococcus faecalis, VRE39, 10 μM vancomycin added), 400 µM; against B. subtilis PSB3 (Bacillus subtilis) it was 0.39 µM (≈ 0.565 µg/mL). In addition, in test [1], the “reduced affinity for vancomycin” value is listed as 1000 fold.

Broadly, the MIC is the lowest concentration that inhibits growth of the organism.
